Tested on: roots of corn plants
Assay: endomycorrhizal mean infection percentage (MIP) bioassay
Type: in vivo, Zea Maize 'Golden Bantam'
Conditions: both trials
Method: An endomycorrhizal mean infection percentage (MIP) bioassay was initiated to test mycorrhizal infectivity of a liquid mycorrhizal formulation treated with bactericides. The MIP bioassay is used to determine the effect of endomycorrhizal colonization in the roots of corn plants on the treatment applied. The MIP bioassay was adapted to utilize 15 mL of liquid per pot. The liquid mycorrhizal formulation which was tested was MycoApply Ultra (Novozymes Biologicals), which is a mycorrhizal inoculant that contains several species of endomycorrhizas. For a ready to use fertilizer, the optimal amount of mycorrhizas to be added based on application rate of ready to use fertilizer, mycorrhizal infectivity, and cost effectiveness was 0.1 propagules of mycorrhizas per 1.0 mL of ready to use fertilizer. MycoApply Ultra contains 286 propagules per gram, therefore 0.00034 g MycoApply Ultra in 1 mL of ready to use fertilizer will provide the desired concentration of mycorrhizal propagules, 0.1 prop/mL. The MycoApply Ultra was tested with two different concentrates 10× (0.0034 g/mL) and 100× (0.034 g/mL). The bactericide used in all treatments for Trial 1 was 500 ppm Kathon and 250 ppm Bronopol. There were seven treatment groups, each contained 5 replicates. Treatment 1 was a water only control. […] At harvest the parameter evaluated was percent mycorrhizal colonization. […]

With `O=[N+]([O-])C(Br)(CO)CO` [Bronopol, 2-bromo-2-nitro-1,3-propanediol] the “ability of mycorrhizas to germinate and infect roots in presence of bactericide” value was “increase”.
